Experimental data from patent US6710055B2, “Disubstituted bicyclic heterocycles, the preparation thereof, and their use as pharmaceutical compositions” (Boehringer Ingelheim Pharma GmbH & Co., KG, priority 1997, dated 2004).
Read-outs that look alike come from different tables or passages of the source.

What was measured:
Test thrombin (bovine) = biological target: T1, Test thrombin (bovine) (Bos taurus, UniProt P00735); experiment: Thrombin time in human citrated plasma (Biomatic B10 coagulometer); type: biochemical
T1 construct: purchased Behring Werke, Marburg
Method: were investigated as follows for their effects on thrombin time:
Materials: plasma, from human citrated blood.
Test thrombin (bovine), 30U/mL, Behring Werke, Marburg
Diethylbarbiturate acetate buffer, ORWH 60/61, Behring Werke, Marburg
Biomatic B10 coagulometer, Sarstedt
The thrombin time was determined using a Biomatic B10 coagulometer made by Messrs. Sarstedt. As the test substance, 0.1 mL of human citrated plasma and 0.1 mL diethylbarbiturate buffer (DBA buffer) were added to the test strip prescribed by the manufacturer. The mixture was incubated for one minute at 37° C. The clotting reaction was started by the addition of 0.3 U test thrombin in 0.1 mL DBA buffer. The time is measured using the apparatus from the addition of the thrombin up to the clotting of the mixture. Mixtures to which 0.1 mL of DBA buffer were added were used as the controls.

thrombocyte aggregation = experiment: Inhibitory effect on thrombocyte aggregation; type: cell-based
rats = conditions: doses of up to 10 mg/kg i.v.
[1] = concentration at which the thrombin time is double compared with the control, human citrated plasma, 0.3 U test thrombin (bovine), 37° C.

Compound | Thrombin time (ED200 in μM) (Test thrombin (bovine); [1]) | further results
CCOC(=O)CCN(c1ccccc1)S(=O)(=O)c1ccc2c(c1)nc(CNc1ccc(C(=N)N)cc1)n2C.Cl |  | melting point: 188 to 191 °C
N=C(N)c1ccc(NCc2nc3cc(C(=O)N(CCC(=O)O)c4ccccc4)ccc3s2)cc1 [A, 2-[N-(4-amidinophenyl)aminomethyl]benzthiazole-5-carboxylic acid-N-phenyl-N-(2-carboxyethyl)amide] | 0.04 µM | 
Cn1c(CCc2ccc(C(=N)N)cc2)nc2cc(C(=O)N(CCCC(=O)O)c3ccccc3)ccc21 [B, 1-methyl-2-[2-(4-amidinophenyl)ethyl]benzimidazol-5-yl-carboxylic acid-N-phenyl-N-(3-hydroxycarbonylpropyl)amide] | 0.06 µM | 
Cn1c(COc2ccc(C(=N)N)cc2)nc2cc(C(=O)N(CC(=O)O)c3ccccc3)ccc21 [C, 1-methyl-2-[(4-amidinophenyl)oxymethyl]benzimidazol-5-yl-carboxylic acid-N-phenyl-N-(hydroxycarbonylmethyl)amide] | 0.15 µM | 
Cn1c(CNc2ccc(C(=N)N)cc2)nc2cc(C(=O)N(CCC(=O)O)c3ccccc3)ccc21 [D, 1-methyl-2-[N-(4-amidinophenyl)aminomethyl]benzimidazol-5-yl-carboxylic acid-N-phenyl-N-(2-hydroxycarbonylethyl)amide] |  | Thrombin time (ED200 in μM) (Test thrombin (bovine)): 0.03 µM
Cn1c(CNc2ccc(C(=N)N)cc2)nc2cc(C(=O)N(CC(=O)O)c3ccccn3)ccc21 [E, 1-methyl-2-[N-(4-amidinophenyl)aminomethyl]benzimidazol-5-yl-carboxylic acid-N-(2-pyridyl)-N-(hydroxycarbonylmethyl)amide] | 0.09 µM | 
CN(Cc1nc2cc(C(=O)N(CCC(=O)O)c3ccccc3)ccc2s1)c1ccc(C(=N)N)cc1.Cl [Example 16, 2-[N-(4-amidinophenyl)-N-methylaminomethyl]benzothiazol-5-yl-carboxyiic acid-N-phenyl-N-(2-hydroxycarbonylethyl)amide hydrochloride] |  | inhibitory effect on thrombocyte aggregation (thrombocyte aggregation): slight inhibitory effect
Cn1c(CCc2ccc(C(=N)N)cc2)nc2cc(C(=O)N(CCc3nnn[nH]3)c3ccccc3)ccc21 [F, 1-methyl-2-[2-(4-amidinophenyl)ethyl]benzimidazol-5-yl-carboxylic acid-N-phenyl-N-[2-(1H-tetrazol-5-yl)ethyl]amide] | 0.03 µM | 
[H]/N=C(/N)c1ccc(NCc2nc3cc(C(=O)N(CCC(=O)O)c4ccccn4)ccc3n2C)cc1 [G, 1-methyl-2-[N-(4-amidinophenyl)aminomethyl]benzimidazol-5-yl-carboxylic acid-N-(2-pyridyl)-N-(2-hydroxycarbonylethyl)amide] |  | Thrombin time (ED200 in μM) (Test thrombin (bovine)): 0.03 µM; acute toxic side effects (rats): no acute toxic side effects were observed
